Entries after “also recorded” stand apart in the source; their conditions may differ.
Experiments:
Format in all cases: cell-based
mouse Olfr73 [1] = biological target: T1, mouse Olfr73 (Mus musculus, UniProt Q920P2); experiment: GCaMP3 calcium imaging of mouse OSNs ectopically expressing Olfr73 (rAAV2/5), 5-s odorant pulse; settings: for Agonism/antagonism, OSN Ca2+ Mouse: strong agonist 100 µM, putative antagonist 1 mM, single or as pair; for Effect on the response to eugenol in a binary mix: eugenol 100 µM or 10 µM plus putative antagonist
T1 sequence (Q920P2 1-313): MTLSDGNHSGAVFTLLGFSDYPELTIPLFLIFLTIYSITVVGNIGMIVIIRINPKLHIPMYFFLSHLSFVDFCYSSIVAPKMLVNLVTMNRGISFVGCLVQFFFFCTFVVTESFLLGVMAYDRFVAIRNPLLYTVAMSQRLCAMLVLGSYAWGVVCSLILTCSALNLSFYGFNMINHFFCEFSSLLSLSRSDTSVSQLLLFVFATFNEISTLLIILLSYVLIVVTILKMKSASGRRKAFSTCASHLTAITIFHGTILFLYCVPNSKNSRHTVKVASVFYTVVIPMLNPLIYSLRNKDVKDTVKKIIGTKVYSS

mouse Olfr73 [2] = biological target: T1, mouse Olfr73; experiment: Calcium imaging of HEK293 cells expressing Olfr73 with Gs/olf, short 5-s odorant pulse; settings: for Effect on the response to eugenol or vanillin in a binary mix: agonist 100 µM, test ligand 1 mM; for Agonism/antagonism, HEK293 short odor Ca2+ Gs/olf: strong agonist 100 µM, putative antagonist 1 mM, single or as pair
mouse Olfr73 [3] = biological target: T1, mouse Olfr73; experiment: Calcium imaging of HEK293 cells expressing Olfr73 with Gα15, short 5-s odorant pulse; settings: for Response to ligand applied alone: HEK293, Gα15, 5-s pulse; for Effect on the response to eugenol in a binary mix: HEK293, Gα15, eugenol 100 µM; for Agonism/antagonism, HEK293 short odor Ca2+ G15: 5-s pulse, strong agonist 100 µM, putative antagonist 1 mM, single or as pair
mouse Olfr73 [4] = biological target: T1, mouse Olfr73; experiment: cell-based; settings: for Response to ligand applied alone: HEK293, Gαq11/ß1/γ13, 5-s pulse; for Agonism/antagonism, HEK293 short odor Ca2+ Gq11: 5-s pulse, strong agonist 100 µM, putative antagonist 1 mM, single or as pair
mouse Olfr73 [5] = biological target: T1, mouse Olfr73; experiment: GCaMP3 calcium imaging of rat OSNs ectopically expressing Olfr73 (rAAV2/5), 5-s odorant pulse
mouse Olfr73 [6] = biological target: T1, mouse Olfr73; experiment: Cre-SEAP cAMP reporter assay, HEK293 cells co-expressing untagged Olfr73 and Gs/olf, prolonged odorant
Experimental: cAMP production was measured as previously described. HEK293T cells were co-transfected with a guanine nucleotide exchange factor Ric-8b (50 ng; a gift from Dr. Malnic, Universidade de São Paulo, Brazil), Gαolf (50 ng), RTP1s (100 ng) and untagged Olfr73 (1.5 μg). Cells were also transfected with 1.5 μg of a pCRE-SEAP, where the expression of the secreted alkaline phosphatase (SEAP) is under regulation of the cAMP responsive element. A plasmid pTAL-SEAP missing the Cre element was used as a negative control. Cells were also transfected with 50 ng of a pcDNA5/TO/LacZ (Invitrogen) for DNA concentration normalization. At 24 h post-transfection, the cells were re-seeded for SEAP analysis and odorants were added at the indicated dilutions at 48 h post-transfection. […] The supernatants were incubated for 30 min at 65 °C and then frozen until analysis. The cell pellets were washed with PBS and then lysed with reporter lysis buffer for β-galactosidase measurement following the manufacturer’s instructions (Promega). SEAP activity was measured by mixing 100 μl of supernatant with an equal amount of BluePhos substrate (KPL). Samples were monitored for color development at 630 nm in a microwell plate reader. SEAP activity was calculated by subtracting the responses of cells transfected in parallel with pTAL-SEAP and normalizing to β-gal activity. Average SEAP activity was determined after subtracting the response of cells not expressing an OR and is reported in arbitrary units ± standard deviation.

mouse Olfr73 [7] = biological target: T1, mouse Olfr73; experiment: cAMP-dependent Ca2+ influx (CNGCmut, GCaMP3) in HEK293 cells with untagged Olfr73 and Gs/olf, 10-min odorant; settings: for Response to ligand applied alone, prolonged: 10-min application; for Response to ligand applied alone, prolonged / Agonism/antagonism, HEK293 long odor Ca2+ Gs/olf: eugenol 100 µM, MIEG 1 mM; for Agonism/antagonism, HEK293 long odor Ca2+ Gs/olf: prolonged 10-min odorant application
mouse Olfr73 [8] = biological target: T1, mouse Olfr73; experiment: GCaMP3 calcium imaging of HEK293T cells co-transfected with pTR-Olfr73-furin2A-GCaMP3 (untagged Olfr73) and Gα15, 5-s pulse; settings: for Response to ligand applied alone: HEK293T, untagged Olfr73, Gα15, 5-s pulse
Olfr599 = Olfr599 (Mus musculus, UniProt Q8VG01); experiment: GCaMP3 calcium imaging of mouse OSNs ectopically expressing Olfr599 (rAAV2/5); settings: each at 100 µM, 5-s pulse
Olfr599, sequence (Q8VG01 entry or part of it): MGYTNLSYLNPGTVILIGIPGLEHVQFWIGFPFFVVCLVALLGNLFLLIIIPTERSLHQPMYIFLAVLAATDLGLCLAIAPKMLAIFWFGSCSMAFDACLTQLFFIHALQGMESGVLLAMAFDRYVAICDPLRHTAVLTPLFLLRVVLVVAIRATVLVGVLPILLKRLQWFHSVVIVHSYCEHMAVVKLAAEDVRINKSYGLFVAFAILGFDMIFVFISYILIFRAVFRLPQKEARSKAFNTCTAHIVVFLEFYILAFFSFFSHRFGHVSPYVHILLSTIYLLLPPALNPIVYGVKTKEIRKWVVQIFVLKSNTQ
Experimental: Animals 4–6 weeks of age were used for experiments 7–21 days post-inoculation with rAAV2/5 encoding OR-furin2A-GCaMP3. Calcium imaging was performed as detailed previously. Tissue was prepared and mounted with the apical surface facing up. The chamber was transferred to the stage of an upright microscope (Zeiss Axioskop-2F) equipped with a 40×/0.75NA long distance water-immersion objective lens. Experimental solutions were applied for a duration of 5 s directly to the field of view through a 100 µm diameter needle made of fused silica and connected to a 9-channel Teflon manifold. Solution application was controlled by electronic valves (VC-6, Warner Instruments). The calcium response is presented as an increase of GCaMP3 fluorescence originating from the knob and underlying dendrite. The tissue was illuminated using a standard eGFP filter cube BP490 nm/ 535 nm (Omega Optical, USA) and the emitted light was collected at 530 nm (BP 530/20 nm, Omega Optical, USA) by a 12-bit cooled CCD camera (ORCA R2, Hamamatsu, Japan). […] Before processing, fluorescence intensity was corrected for the background. Each knob was assigned a region of interest (ROI) and changes in fluorescence intensity within each ROI were analyzed and expressed as the peak fractional change in fluorescent light intensity (F-Fo)/Fo where Fo is the baseline fluorescence before application of experimental solutions.

[9] = HEK293, vanillin 100 µM, MIEG 1 mM

## CCCCCOC(C)=O [Amyl acetate, amyl acetate]
Mouse Olfr73 [1]; mouse Olfr73-OSNs, 5-s pulse
  Response to ligand applied alone: variable responses

## C=C(C)C1CC=C(C)C(=O)C1 (stereo not drawn) [Carvone]
Mouse Olfr73 [2]; HEK293, Gs/olf, 5-s pulse
  Response to ligand applied alone: did not activate any response
Mouse Olfr73 [2]; HEK293, Gs/olf
  Effect on the response to eugenol or vanillin in a binary mix: no inhibiting effect
Mouse Olfr73 [3]
  Response to ligand applied alone: non-agonist
  Effect on the response to eugenol in a binary mix: incapable
Mouse Olfr73 [4]
  Response to ligand applied alone: non-agonist
Mouse Olfr73 [4]; HEK293, eugenol 100 µM, test ligand 1 mM, also with 30-s pre-incubation
  Effect on the response to eugenol in a binary mix: no antagonism; also recorded: failed to antagonize

## C=CCc1ccc(O)c(OC)c1 [Eugenol, eugenol]
Mouse Olfr73 [1]
  EC50: 4.8 ± 1.1 µM
Mouse Olfr73 [1]; mouse Olfr73-OSNs, 5-s pulse
  Response to ligand applied alone: strongly activated; also recorded: consistently evoked a response in all cells
Mouse Olfr73 [5]
  EC50: 41 ± 12 µM
Mouse Olfr73 [5]; from EC50 values
  Sensitivity of rat versus mouse Olfr73-OSNs: nearly tenfold less sensitive
Mouse Olfr73 [6]; HEK293 long odor, Cre/SEAP, Gs/olf, untagged Olfr73
  EC50: 205 ± 27 µM
Mouse Olfr73 [7]
  Response to ligand applied alone, prolonged: sustained cAMP-dependent calcium influx
  Agonism/antagonism, HEK293 long odor Ca2+ Gs/olf: Agonist
Mouse Olfr73 [2]; 5-s pulse
  Agonism/antagonism, HEK293 short odor Ca2+ Gs/olf: Agonist
Mouse Olfr73 [3]
  Agonism/antagonism, HEK293 short odor Ca2+ G15: Agonist
Mouse Olfr73 [4]
  Response to ligand applied alone: consistently activated calcium release
Mouse Olfr73 [4]; HEK293 short odor Ca2+, Gq11, response normalized to 5 mM eugenol
  EC50: 184 ± 62 µM
Mouse Olfr73 [8]
  Response to ligand applied alone: robustly activated
Mouse Olfr73 [8]; listed as eugenol
  Response to ligand applied alone: robust elevation of intracellular calcium; also recorded: robust calcium signal

## C/C=C/c1ccc2c(c1)OCO2 [Isosafrole]
Mouse Olfr73 [1]; 5-s pulse
  Agonism/antagonism, OSN Ca2+ Mouse: Agonist
Mouse Olfr73 [1]; ligand 1 mM, 5-s pulse, Olfr73-OSNs
  Response relative to the response to eugenol: 25%
Mouse Olfr73 [2]; 5-s pulse
  Agonism/antagonism, HEK293 short odor Ca2+ Gs/olf: Antagonist
Mouse Olfr73 [3]
  Agonism/antagonism, HEK293 short odor Ca2+ G15: Antagonist
Mouse Olfr73 [4]
  Agonism/antagonism, HEK293 short odor Ca2+ Gq11: Antagonist

## C/C=C/c1ccc(OC)c(OC)c1 [Methylisoeugenol, methylisoeugenol]
Mouse Olfr73 [1]; mouse Olfr73-OSNs, 5-s pulse
  Response to ligand applied alone: evoked a measurable response
Mouse Olfr73 [1]; mouse Olfr73-OSNs, 5-s pulse, listed as MIEG
  Response to ligand applied alone: partial agonist
Mouse Olfr73 [1]; mouse Olfr73-OSNs, 5-s pulse, listed as methylisoeugenol
  Response to ligand applied alone: also elicited a response
Mouse Olfr73 [1]; mouse Olfr73-OSNs, Ca2+ (GCaMP3), 5-s odorant pulse, read-out: EC50
  EC50: 430 ± 130 µM
Mouse Olfr73 [1]; mouse Olfr73-OSNs, listed as MIEG
  Effect on the response to eugenol in a binary mix: did not reduce the response; also recorded: not significantly changed
Mouse Olfr73 [5]; 5-s pulse, strong agonist 100 µM, putative antagonist 1 mM
  Agonism/antagonism, OSN Ca2+ Rat: Agonist
Mouse Olfr73 [6]; prolonged 30-min odorant application
  Agonism/antagonism, HEK293 long odor Cre/SEAP Gs/olf: Agonist
Mouse Olfr73 [6]; prolonged application, 0 µM eugenol
  Response to ligand applied alone, Cre-SEAP: generated cAMP
Mouse Olfr73 [6]; several concentrations of eugenol and MIEG, prolonged incubation
  Interaction with eugenol in a binary mix, Cre-SEAP: no antagonistic interaction
Mouse Olfr73 [7]
  Response to ligand applied alone, prolonged: more slowly developing cAMP-dependent calcium influx; also recorded: significantly smaller than eugenol
  Agonism/antagonism, HEK293 long odor Ca2+ Gs/olf: Agonist
Mouse Olfr73 [7]; 10 min, eugenol 100 µM and MIEG 1 mM
  Response to mixture with eugenol versus eugenol alone, prolonged: no significant difference
Mouse Olfr73 [2]; 5-s pulse
  Agonism/antagonism, HEK293 short odor Ca2+ Gs/olf: Antagonist
Mouse Olfr73 [2]; HEK293, Gs/olf
  Effect on the response to eugenol or vanillin in a binary mix: antagonized
Mouse Olfr73 [3]
  Agonism/antagonism, HEK293 short odor Ca2+ G15: Antagonist
Mouse Olfr73 [3]; HEK293, Gα15, vanillin 100 µM, MIEG 1 mM
  Effect on the response to vanillin, 30-sec pre-incubation: complete inhibition
Mouse Olfr73 [4]
  Agonism/antagonism, HEK293 short odor Ca2+ Gq11: Antagonist
Mouse Olfr73 [4]; [9]
  Effect on the response to vanillin, 30-s pre-incubation: near complete inhibition; also recorded: almost completely blocked
  Effect on the response to vanillin, co-application: only partially inhibited
Mouse Olfr73 [8]; listed as MIEG
  Response to ligand applied alone: did not evoke any response; also recorded: did not elicit any response
Mouse Olfr73 [8]; eugenol 100 µM, MIEG 1 mM, 5-s pulse
  Effect on the response to eugenol in a binary mix: reduced the response; also recorded: significantly diminished

## COc1cc(C=O)ccc1O [Vanillin, vanillin]
Mouse Olfr73 [2]; 5-s pulse
  Agonism/antagonism, HEK293 short odor Ca2+ Gs/olf: Agonist

## CC(=O)c1ccccc1 [acetophenone]
Mouse Olfr73 [1]; mouse Olfr73-OSNs, 5-s pulse
  Response to ligand applied alone: variable responses

## C=CCc1cc(OC)c(O)c(-c2cc(CC=C)cc(OC)c2O)c1 [di-Eugenol]
Mouse Olfr73 [1]; 5-s pulse
  Agonism/antagonism, OSN Ca2+ Mouse: Inactive
Mouse Olfr73 [1]; mouse Olfr73-OSNs, 5-s pulse
  Response to ligand applied alone: failed to activate any response
Mouse Olfr73 [1]; mouse Olfr73-OSNs, 5-s pulse, listed as di-EG
  Response to ligand applied alone: did not elicit any response
Mouse Olfr73 [2]; 5-s pulse
  Agonism/antagonism, HEK293 short odor Ca2+ Gs/olf: Antagonist
Mouse Olfr73 [3]
  Agonism/antagonism, HEK293 short odor Ca2+ G15: Antagonist
Mouse Olfr73 [4]
  Agonism/antagonism, HEK293 short odor Ca2+ Gq11: Antagonist

## CCC1c2cc(OC)c(O)cc2C(c2ccc(O)c(OC)c2)C1C (stereo not drawn) [di-Isoeugenol]
Mouse Olfr73 [1]; 5-s pulse
  Agonism/antagonism, OSN Ca2+ Mouse: Inactive
Mouse Olfr73 [1]; mouse Olfr73-OSNs, 5-s pulse, listed as di-IEG
  Response to ligand applied alone: did not elicit any response; also recorded: failed to activate any response
Mouse Olfr73 [1]; mouse Olfr73-OSNs, listed as di-IEG
  Effect on the response to eugenol in a binary mix: not able to antagonize; also recorded: additive increase
Mouse Olfr73 [2]; 5-s pulse
  Agonism/antagonism, HEK293 short odor Ca2+ Gs/olf: Antagonist
Mouse Olfr73 [3]
  Agonism/antagonism, HEK293 short odor Ca2+ G15: Antagonist
  Response to ligand applied alone: is not an agonist
  Effect on the response to eugenol in a binary mix: antagonizes eugenol
Mouse Olfr73 [4]
  Agonism/antagonism, HEK293 short odor Ca2+ Gq11: Antagonist

## CCCCCCCC=O [octanal]
Olfr599
  Response to ligand applied alone: evoked reliable neuronal responses

Reference: PMC8085013, “Mixture interactions at mammalian olfactory receptors are dependent on the cellular environment” (Scientific Reports, 2021)
